Measured values as given in BindingDB's records for doi:10.1016/j.ejmech.2012.08.033 (2012).

Target: Casein kinase I isoform alpha (Homo sapiens, UniProt P48729)
Assay: Inhibition of CK1 after 30 mins by liquid scintillation counter

Chain of Casein kinase I isoform alpha (P48729 whole entry, canonical isoform): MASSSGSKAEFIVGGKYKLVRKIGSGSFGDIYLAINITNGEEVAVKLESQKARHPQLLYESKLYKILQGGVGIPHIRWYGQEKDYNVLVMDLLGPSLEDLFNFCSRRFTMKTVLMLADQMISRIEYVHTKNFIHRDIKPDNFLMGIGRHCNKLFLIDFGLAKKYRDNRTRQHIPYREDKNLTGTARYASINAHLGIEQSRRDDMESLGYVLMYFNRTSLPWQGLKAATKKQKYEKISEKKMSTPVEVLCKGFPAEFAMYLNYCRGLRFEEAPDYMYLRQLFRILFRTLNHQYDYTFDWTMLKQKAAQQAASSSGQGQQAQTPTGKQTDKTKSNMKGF

IC50 | SMILES
180 nM | CC(C)n1cnc2c(NCc3ccc(-c4ccccn4)cc3)nc(NC[C@@H](O)CO)nc21
390 nM | CC(C)n1cnc2c(NCc3ccc(-c4ccccn4)cc3)nc(N3C[C@H](O)C[C@H]3CO)nc21
660 nM | CC(C)n1cnc2c(NCc3ccc(-c4ccccn4)cc3)nc(NCC[C@H](O)CO)nc21
150 nM | CC(C)[C@H](N)C(=O)OC[C@H](O)CNc1nc(NCc2ccc(-c3ccccn3)cc2)c2ncn(C(C)C)c2n1
